Data reported in PubChem BioAssay AID1963980 (Molecular Pharmacology Branch, DTP, NCI, 2024).

Test system: 475296-252-R-J1-PDC spheroid viability
Experiment: Anticancer human tumor 475296-252-R-J1-PDC patient-derived rectal carcinoma cell line growth inhibition [PI3K]
Settings: spheroids with HUVEC and MSC; for IC50: curve of first compound; for viability, T/C: stronger effect = lower value
From the text: Combinatorial screen of targeted agents with the PI3K inhibitors inavolisib, alpelisib, duvelisib, and copanlisib in multi-cell type tumor spheroids
A high-throughput screen of multi-cell type tumor spheroids was designed to identify active combinations of targeted small molecules and PI3K pathway inhibitors. Complex spheroids include a stromal component modeled by human endothelial cells (HUVEC) and fibroblasts modeled by human mesenchymal stem cells (MSCs). The concentration ranges selected for each drug and investigational agent were based upon clinically achievable concentrations if the clinical Cmax of the agent was known.
Compounds. The drugs and investigational agents: inavolisib (NSC800729), alpelisib (NSC765974), duvelisib (NSC772469), copanlisib (NSC816437), ipatasertib (NSC767898), afuresertib (NSC778305), talazoparib (NSC767125), sapanisertib (NSC764658), selumetinib (NSC741078), tovorafenib (DAY101, NSC766906), vemurafenib (NSC761431), ravoxertinib (NSC781343), sotorasib (NSC818433), MRTX1133 (NSC 836407), abemaciclib (NSC 768073), palbociclib (NSC758247), venetoclax (NSC 766270), SY5609 (NSC837396), enzalutamide (NSC755605), and darolutamide (NSC825331), were obtained from the National Cancer Institute (NCI) Developmental Therapeutics Program Chemical Repository. The FDA-approved anticancer drug set is available from the NCI Developmental Therapeutics Program. […] The stock solutions were prepared in dimethyl sulfoxide (DMSO, Sigma-Aldrich, St. Louis, MO, cat. D2650) at 800-fold the tested concentration and stored at -70 degrees C prior to their use. All drugs and investigational agents were tested over a range starting from a high concentration at or near the clinical Cmax and decreasing in half-log increments. If the clinical Cmax for an agent had not been determined, the highest concentration tested was 10 microM.
Cell Culture. All cells were maintained in an incubator at 37 degrees C and 5% CO2 with 95% humidity. The PDC lines were cultured according to standard operating procedures established by the NCI PDMR (https://pdmr.cancer.gov/sops/default.htm). All PDCs were thawed and cultured in Matrigel-coated flasks prepared with a working solution of 1X Ham's F-12 nutrient mix, without supplementation (Invitrogen, Waltham, MA, cat. 11765054), 100 U/mL penicillin-streptomycin (Invitrogen, cat. 15140122), and 2.5% Matrigel (Corning Inc., Corning, NY, cat. 354248) for the first three passages. The 354836-022-R-J1-PDC, 475296-252-R-J1-PDC, and 997726-040-R-J2-PDC lines were cultured in 6A media, which includes advanced DMEM/F-12 (Thermo Fisher Scientific, cat. 12634028), 10 mM HEPES (Thermo Fisher Scientific, cat. 15630080), 1X GlutaMAX supplement (Thermo Fisher Scientific, cat. 35050061), 0.1 mg/mL primocin (InvivoGen, San Diego, CA, cat. ant-pm-2), 10% defined fetal bovine serum, heat inactivated (HyClone Laboratories Inc., Logan, UT, cat. SH30070.03HI), 50% L-WRN conditioned media (ATCC, cat. CRL-3276), 1.25 mM N-Acetyl-L-cysteine (Sigma-Aldrich, cat. A9165), 10 mM nicotinamide (Sigma-Aldrich, cat. N0636), 1X B-27 supplement (Thermo Fisher Scientific, cat. 17504044), 1X N-2 supplement (Thermo Fisher Scientific, cat. 17502048), and 10 microM Y-27632 dihydrochloride (Tocris Bioscience, Bristol, United Kingdom, cat. 1254). The 624824-186-R-J2-PDC line was cultured in 6C/Colon 1B media, which includes all 6A media components plus 50 ng/mL human EGF recombinant protein (Thermo Fisher Scientific, cat. PHG0311). […]

[1] = second compound 0.00316 µM, first compound 0.0316 µM
[2] = second compound 0.00316 µM, first compound 0.1 µM
[3] = second compound 0.00316 µM, first compound 0.316 µM
[4] = second compound 0.00316 µM, first compound 1 µM
[5] = second compound 0.00316 µM, first compound 3.16 µM
[6] = second compound 0.00316 µM, first compound 10 µM
[7] = second compound 0.01 µM, first compound 0.0316 µM
[8] = second compound 0.01 µM, first compound 0.1 µM
[9] = second compound 0.01 µM, first compound 0.316 µM
[10] = second compound 0.01 µM, first compound 1 µM
[11] = second compound 0.01 µM, first compound 3.16 µM
[12] = second compound 0.01 µM, first compound 10 µM
[13] = second compound 0.0316 µM, first compound 0.0316 µM
[14] = second compound 0.0316 µM, first compound 0.1 µM
[15] = second compound 0.0316 µM, first compound 0.316 µM
[16] = second compound 0.0316 µM, first compound 1 µM
[17] = second compound 0.0316 µM, first compound 3.16 µM
[18] = second compound 0.0316 µM, first compound 10 µM
[19] = second compound 0.1 µM, first compound 0.0316 µM
[20] = second compound 0.1 µM, first compound 0.1 µM
[21] = second compound 0.1 µM, first compound 0.316 µM
[22] = second compound 0.1 µM, first compound 1 µM
[23] = second compound 0.1 µM, first compound 3.16 µM
[24] = second compound 0.1 µM, first compound 10 µM
[25] = second compound 0.316 µM, first compound 0.0316 µM
[26] = second compound 0.316 µM, first compound 0.1 µM
[27] = second compound 0.316 µM, first compound 0.316 µM
[28] = second compound 0.316 µM, first compound 1 µM
[29] = second compound 0.316 µM, first compound 3.16 µM
[30] = second compound 0.316 µM, first compound 10 µM
[31] = second compound 1 µM, first compound 0.0316 µM
[32] = second compound 1 µM, first compound 0.1 µM
[33] = second compound 1 µM, first compound 0.316 µM
[34] = second compound 1 µM, first compound 1 µM
[35] = second compound 1 µM, first compound 3.16 µM
[36] = second compound 1 µM, first compound 10 µM
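Also: spheroids exposed to agents for seven days before readout.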

**Q.** CC1(C)CCC(CN2CCN(c3ccc(C(=O)NS(=O)(=O)c4ccc(NCC5CCOCC5)c([N+](=O)[O-])c4)c(Oc4cnc5[nH]ccc5c4)c3)CC2)=C(c2ccc(Cl)cc2)C1 + CC(Nc1ccc2c(c1)OCCn1cc(N3C(=O)OCC3C(F)F)nc1-2)C(N)=O was tested. Which IC50 (second compound 0.00316 µM) did it give?
**A.** Its IC50 is greater than 10 µM.

**Q.** And the IC50 (second compound 0.01 µM)?
**A.** The IC50 was greater than 10 µM.

**Q.** And the IC50 (second compound 0.0316 µM)?
**A.** Its IC50 is greater than 10 µM.

**Q.** What about the IC50 (second compound 0.1 µM) of the same compound?
**A.** The IC50 was greater than 10 µM.

**Q.** What about the IC50 (second compound 0.316 µM) of the same compound?
**A.** The IC50 was greater than 10 µM.

**Q.** What about the IC50 (second compound 1 µM) of the same compound?
**A.** Its IC50 is greater than 10 µM.

**Q.** What about the viability, T/C [1] of the same compound?
**A.** The viability, T/C was 109%.

**Q.** And the viability, T/C [2]?
**A.** Its viability, T/C is 94.4%.

**Q.** And the viability, T/C [3]?
**A.** Its viability, T/C is 92.3%.

**Q.** What about the viability, T/C [4] of the same compound?
**A.** Its viability, T/C is 87.3%.

**Q.** And the viability, T/C [5]?
**A.** Its viability, T/C is 86.3%.

**Q.** And the viability, T/C [6]?
**A.** Its viability, T/C is 84.2%.

**Q.** What about the viability, T/C [7] of the same compound?
**A.** The viability, T/C was 92.4%.

**Q.** What about the viability, T/C [8] of the same compound?
**A.** Its viability, T/C is 85.5%.

**Q.** And the viability, T/C [9]?
**A.** Its viability, T/C is 101%.

**Q.** What about the viability, T/C [10] of the same compound?
**A.** The viability, T/C was 83.2%.

**Q.** And the viability, T/C [11]?
**A.** Its viability, T/C is 93%.

**Q.** And the viability, T/C [12]?
**A.** The viability, T/C was 74.5%.

**Q.** What about the viability, T/C [13] of the same compound?
**A.** Its viability, T/C is 95.5%.

**Q.** What about the viability, T/C [14] of the same compound?
**A.** Its viability, T/C is 96%.

**Q.** What about the viability, T/C [15] of the same compound?
**A.** The viability, T/C was 94.3%.

**Q.** And the viability, T/C [16]?
**A.** Its viability, T/C is 96.2%.

**Q.** What about the viability, T/C [17] of the same compound?
**A.** The viability, T/C was 96.9%.

**Q.** And the viability, T/C [18]?
**A.** Its viability, T/C is 77.2%.

**Q.** And the viability, T/C [19]?
**A.** Its viability, T/C is 87.7%.

**Q.** And the viability, T/C [20]?
**A.** Its viability, T/C is 96.1%.

**Q.** What about the viability, T/C [21] of the same compound?
**A.** The viability, T/C was 87%.

**Q.** And the viability, T/C [22]?
**A.** Its viability, T/C is 97.1%.

**Q.** What about the viability, T/C [23] of the same compound?
**A.** The viability, T/C was 90.4%.

**Q.** And the viability, T/C [24]?
**A.** The viability, T/C was 73.7%.

**Q.** What about the viability, T/C [25] of the same compound?
**A.** Its viability, T/C is 85.2%.

**Q.** And the viability, T/C [26]?
**A.** Its viability, T/C is 83.8%.

**Q.** And the viability, T/C [27]?
**A.** The viability, T/C was 93.9%.

**Q.** And the viability, T/C [28]?
**A.** Its viability, T/C is 88.3%.

**Q.** What about the viability, T/C [29] of the same compound?
**A.** The viability, T/C was 81.2%.

**Q.** And the viability, T/C [30]?
**A.** Its viability, T/C is 74.1%.

**Q.** What about the viability, T/C [31] of the same compound?
**A.** Its viability, T/C is 93.7%.

**Q.** What about the viability, T/C [32] of the same compound?
**A.** The viability, T/C was 82.3%.

**Q.** What about the viability, T/C [33] of the same compound?
**A.** The viability, T/C was 85.8%.

**Q.** What about the viability, T/C [34] of the same compound?
**A.** The viability, T/C was 89.6%.

**Q.** And the viability, T/C [35]?
**A.** Its viability, T/C is 82.6%.

**Q.** What about the viability, T/C [36] of the same compound?
**A.** The viability, T/C was 72.8%.

**Q.** What does the source list for C[C@@H](NC(=O)c1ncnc(N)c1Cl)c1ncc(C(=O)Nc2cc(C(F)(F)F)c(Cl)cn2)s1 + CC(Nc1ccc2c(c1)OCCn1cc(N3C(=O)OCC3C(F)F)nc1-2)C(N)=O?
**A.** IC50 (second compound 0.00316 µM): > 10 µM; IC50 (second compound 0.01 µM): > 10 µM; IC50 (second compound 0.0316 µM): > 10 µM; IC50 (second compound 0.1 µM): > 10 µM; IC50 (second compound 0.316 µM): > 10 µM; IC50 (second compound 1 µM): > 10 µM; viability, T/C [1]: 98.9%; viability, T/C [2]: 84%; viability, T/C [3]: 99.5%; viability, T/C [4]: 108%; viability, T/C [5]: 93.8%; viability, T/C [6]: 90%; viability, T/C [7]: 95%; viability, T/C [8]: 76%; viability, T/C [9]: 103%; viability, T/C [10]: 103%; viability, T/C [11]: 108%; viability, T/C [12]: 89%; viability, T/C [13]: 80.3%; viability, T/C [14]: 102%; viability, T/C [15]: 100%; viability, T/C [16]: 116%; viability, T/C [17]: 96.7%; viability, T/C [18]: 79.3%; viability, T/C [19]: 90.3%; viability, T/C [20]: 93.1%; viability, T/C [21]: 102%; viability, T/C [22]: 93.8%; viability, T/C [23]: 103%; viability, T/C [24]: 69%; viability, T/C [25]: 87.7%; viability, T/C [26]: 85.9%; viability, T/C [27]: 91.7%; viability, T/C [28]: 93.6%; viability, T/C [29]: 84.5%; viability, T/C [30]: 76.6%; viability, T/C [31]: 77.7%; viability, T/C [32]: 84.6%; viability, T/C [33]: 95.4%; viability, T/C [34]: 93%; viability, T/C [35]: 83%; viability, T/C [36]: 63.6%
